Values quoted from earlier work in patent publication US8841297B2, “Phenylimidazole derivative as PDE10A enzyme inhibitor” (H. Lundbeck A/S, priority 2009, dated 2014).

Key:
[1] = test system: cataleptic effect of haloperidol; conditions: rats, cited from earlier work
[2] = test system: PCP induced hyperactivity; conditions: rats; cited from earlier work
[3] = test system: amphetamine induced hyperactivity; conditions: rats; cited from earlier work

COc1ccc(Cc2nccc3cc(OC)c(OC)cc23)cc1OC [Papaverine, papaverine]
catalepsy on its own ([1]; papaverine alone): did not cause catalepsy on its own
effect on the cataleptic effect of haloperidol ([1]; together with haloperidol): potentiated the cataleptic effect
effect on hyperactivity induced by PCP [2]: reduced hyperactivity
reduction of amphetamine induced hyperactivity [3]: insignificant
